# Data: article PMC4839570, “Novel Anthra[1,2-c][1,2,5]Thiadiazole-6,11-Diones as Promising Anticancer Lead Compounds: Biological Evaluation, Characterization & Molecular Targets Determination” (PLoS ONE, 2016)
# How the values were obtained:
# [1] = test system: Mycobacterium tuberculosis H37Rv; experiment: Antimycobacterial susceptibility, BACTEC MGIT 960 SIRE; type: cell-based
# Caco-2 permeability = type: in vitro ADME, human; details: human, Caco-2
# Description: (§1) We tested both the absorptive (from the apical to basolateral compartments; A→BL) and secretory (from the basolateral to apical compartments; BL→A) permeabilities of our compound. We determined the amounts of compound transported at the specified time points and calculated the cumulative fractions [F (cum)] transported with respect to time according to the following equation [43]: F(cum)=∑^[CR(tk)−fCR(tk−1)].VR/CD.VD Where C is the concentration (μM), V is the volume (mL) of the receiver (R) or donor (D), tk is time point k, and f is the sample replacement factor calculated as f=(1−Vs/VR) , where VS is the volume of the sample (mL).
# (§2) We determined the permeability coefficients as follows: Papp=(ΔF(cum)/Δt).(1/A).VD Where (ΔF(cum)/Δt) is the slope of the graph of F(cum) versus time (s), A is the area of the filter (cm^2), and VD is the volume of the donor compartment (mL).
# (§3) We determined the active transport by calculating the uptake ratios and the intestinal efflux by calculating the efflux ratios using the following equations [8]: Uptake ratio=Papp(A→BL)/Papp(BL→A) Efflux ratio=Papp(BL→A)/Papp(A→BL) Where Papp(A→BL) is the absorptive permeability coefficient, and Papp(BL→A) is the secretory permeability coefficient.
# (§4) The transport of our compounds through the Caco-2 cells was tested according to Hubatsch et al., 2007 [8]. Briefly, Caco-2 cells were seeded at a density of 2.6 × 10^5 cells/cm^2 onto Corning Transwell® polyester membrane inserts (1.2 cm^2 membrane diameter, 0.4 μm pore size, product #3460) in 12-well tissue culture plates and cultured in Dulbecco’s modified Eagle’s medium with high glucose (4500 mg/liter glucose) and L-glutamine (without pyruvate) supplemented with 10% FBS, 1% non-essential amino acids and 1% penicillin/streptomycin. Cells were incubated for at least 21 days at the specified conditions with the change of medium every two days. The TEER was measured using Millicell® ERS device for each insert after every change of medium to monitor the development of the cells monolayer. Cell monolayers with TEER values less than 300 Ω.cm^2 at the end of the maintenance period were not suitable for the experiment and discarded. The integrity of the cell monolayers were further confirmed by testing the phenol red permeability through the cells. The transport experiments were started by replacing the incubation culture media with the transport buffers with or without the tested compounds, the transport was tested in both directions (apical to basolateral and basolateral to apical). We used Hank’s balanced salt solution without phenol red as the transport medium buffered with either methanesulfonic acid (pH = 6.5) as the transport buffer in the apical compartment or buffered with HEPES and NaHCO3 (pH = 7.4) as the transport buffer in the basolateral compartment. NSC745885 was dissolved in the transport buffers with the aid of 1% DMSO to get final concentrations between 4–5 μM. Samples from the receiver compartments were withdrawn at different time intervals (0 min, 30 min, 45 min, 60 min, 75 min, 90 min, 120 min) and the amounts of transported drug were determined using the HPLC. After the transport experiments, the TEER was checked for every cell monolayer to assure that the monolayers were not compromised from the effect of the tested drug. The apparent permeabilities were calculated as mentioned in the previous section.
# [2] = test system: human intestinal Caco-2 cells; experiment: Caco-2 permeability; type: in vitro ADME
# Description: as §1, §2, §3, §4
# MGH-U1R cell line = test system: MGH-U1R cell line; parameters: method as in PMID 25431950; details: MGH-U1R; cited from earlier work
# MGH-U1 cells = test system: MGH-U1 cells; parameters: method as in PMID 25431950; details: cited from earlier work
Structure (SMILES),Effect on M. tuberculosis H37Rv ([1]; 1.25 μg/mL),Effect on M. tuberculosis H37Rv ([1]; 2.5 μg/mL),Effect on M. tuberculosis H37Rv ([1]; 5 μg/mL),Effect on M. tuberculosis H37Rv ([1]; 7.5 μg/mL),Effect on M. tuberculosis H37Rv ([1]; 10 μg/mL),Effect on M. tuberculosis H37Rv ([1]; 15 μg/mL),Effect on M. tuberculosis H37Rv ([1]; 20 μg/mL),"MIC ([1]; Mycobacterium tuberculosis, 336 h, H37Rv, 14 days)","Papp A→B at 120 min (Caco-2 permeability; 4–5 μM, apical pH 6.5, basolateral pH 7.4, read-out: Absorptive permeability Papp(A→BL))","Papp B→A at 120 min (Caco-2 permeability; 4–5 μM, apical pH 6.5, basolateral pH 7.4, read-out: Secretory permeability Papp(BL→A))",efflux ratio at 120 min (Caco-2 permeability; Papp(BL→A)/Papp(A→BL)),Permeability ranking [2],Uptake ratio ([2]; Papp(A→BL)/Papp(BL→A)),concentration that completely suppressed growth of the resistant cell line (MGH-U1R cell line),concentration that inhibited the non-resistant cells (MGH-U1 cells)
O=C1c2ccccc2C(=O)c2c1cc(Cl)c1nsnc21 [NSC757963],Growth,Growth,Growth,Growth,Inhibition,Inhibition,Inhibition,10 µg/mL,,,,,,,
"O=C1c2ccccc2C(=O)c2c1ccc1nsnc21 [NSC745885, anthra[1,2-c][1,2,5]thiadiazole-6,11-dione]",,,,,,,,,31.8 ×10⁻⁶ cm/s,35.4 ×10⁻⁶ cm/s,1.11,High; completely absorbed,0.898,2.5 µM,2.5 µM
